Test results reported in ChEMBL document CHEMBL5537135, “Novel antimicrobial peptides modified with fluorinated sulfono-γ-AA having high stability and targeting multidrug-resistant bacteria infections” (Eur J Med Chem, 2024).
In brackets after ≈: the same amount, converted by molar mass. Numbered stars: 1 amine (or outer) side, 2 acyl side, 3 side chain; on linkers, the order of the positions; unused ones are H or OH. Square brackets hold non-standard residues; d marks the D form. Peptide text beside a SMILES is read from it. * marks the point of attachment. X8 = NC(=O)CN(C[C@H](Cc1ccccc1)N*)S(=O)(=O)c1cc(C(F)(F)F)cc(C(F)(F)F)c1; X6 = CC(C)C[C@@H](CN(CC(N)=O)S(=O)(=O)c1cc(C(F)(F)F)cc(C(F)(F)F)c1)N*; X4 = N[C@@H](Cc1ccccc1)CN(CC(=O)[*:2])[*:1]; X7 = O=S(=O)(c1cc(C(F)(F)F)cc(C(F)(F)F)c1)*; X2 = CC(C)C[C@H](N)CN(CC(=O)[*:2])[*:1]

Experiments:
[1] = test system: Salmonella typhimurium; assay: Antimicrobial activity against Salmonella typhimurium ATCC 14028 assessed as inhibition of visible bacterial growth incubated for 18 hrs by broth-dilution method; format: functional, Salmonella enterica subsp. enterica serovar Typhimurium; details: Salmonella enterica
[2] = test system: Pseudomonas aeruginosa; assay: Antimicrobial activity against Pseudomonas aeruginosa ATCC 27853 assessed as inhibition of visible bacterial growth incubated for 18 hrs by broth-dilution method; format: functional
[3] = test system: Acinetobacter baumannii; assay: Antimicrobial activity against Acinetobacter baumannii ATCC 19606 assessed as inhibition of visible bacterial growth incubated for 18 hrs by broth-dilution method; format: functional
[4] = test system: Erythrocyte; assay: Hemolytic activity against mouse Red blood cell incubated for 1 hr; format: toxicity, cell-based
[5] = test system: Staphylococcus aureus; assay: Antimicrobial activity against methicillin-resistant Staphylococcus aureus ATCC 33591 assessed as inhibition of visible bacterial growth incubated for 18 hrs by broth-dilution method; format: functional
[6] = test system: Staphylococcus aureus; assay: Antimicrobial activity against Staphylococcus aureus ATCC 25923 assessed as inhibition of visible bacterial growth incubated for 18 hrs by broth-dilution method; format: functional
[7] = test system: Escherichia coli; assay: Antimicrobial activity against Escherichia coli ATCC 25922 assessed as inhibition of visible bacterial growth incubated for 18 hrs by broth-dilution method; format: functional
[8] = test system: Bacillus subtilis; assay: Antimicrobial activity against Bacillus subtilis ATCC 23857 assessed as inhibition of visible bacterial growth incubated for 18 hrs by broth-dilution method; format: functional
[9] = test system: Staphylococcus epidermidis; assay: Antimicrobial activity against Staphylococcus epidermidis ATCC 12228 assessed as inhibition of visible bacterial growth incubated for 18 hrs by broth-dilution method; format: functional
[10] = test system: Staphylococcus aureus; assay: Antimicrobial activity against Staphylococcus aureus ATCC 25923 assessed as fold change in MIC in presence of salt solution; format: functional
[11] = test system: Staphylococcus aureus; assay: Antimicrobial activity against Staphylococcus aureus ATCC 25923 assessed as reduction in bacterial growth in presence of Ca2+; format: functional
[12] = Stability in human serum assessed as half life measured for 5 hrs by RP-HPLC analysis; format: ADME, cell-free

Q: For `CC(C)C[C@H](NC(=O)[C@H](CC(C)C)NC(=O)[C@H](CCCCN)NC(=O)[C@H](CCCCN)NC(=O)[C@H](CC(C)C)NC(=O)[C@H](C)NC(=O)[C@H](CCCCN)NC(=O)CN(C[C@@H](N)Cc1ccccc1)S(=O)(=O)c1cc(C(F)(F)F)cc(C(F)(F)F)c1)C(N)=O` (X7-[X4]KALKKLL-NH2), which MIC [1] is on record?
A: 8 µg/mL (≈ 6.26 µM)

Q: What about the MIC [2] of the same molecule?
A: 16 µg/mL (≈ 12.5 µM)

Q: What about the MIC [3] of the same molecule?
A: 16 µg/mL (≈ 12.5 µM)

Q: And the MHC [4]?
A: 128 µg/mL

Q: And the MIC [5]?
A: 8 µg/mL (≈ 6.26 µM)

Q: And the MIC [6]?
A: 8 µg/mL (≈ 6.26 µM)

Q: What about the MIC [7] of the same molecule?
A: 16 µg/mL (≈ 12.5 µM)

Q: What about the MIC [8] of the same molecule?
A: 4 µg/mL (≈ 3.13 µM)

Q: What about the MIC [9] of the same molecule?
A: 8 µg/mL (≈ 6.26 µM)

Q: For `CC(C)C[C@H](N)CN(CC(=O)N[C@@H](CCCCN)C(=O)N[C@@H](CC(C)C)C(=O)N[C@@H](CC(C)C)C(=O)N[C@@H](CCCCN)C(=O)N[C@@H](CCCCN)C(=O)N[C@@H](CC(C)C)C(=O)N[C@@H](CC(C)C)C(N)=O)S(=O)(=O)c1cc(C(F)(F)F)cc(C(F)(F)F)c1` (X7-[X2]KLLKKLL-NH2), which “fold change (FC)” value [10] is on record?
A: 0.25

Q: And the MIC [1]?
A: 16 µg/mL (≈ 12.4 µM)

Q: And the MIC [11]?
A: 32 µg/mL

Q: And the MIC [2]?
A: 4 µg/mL (≈ 3.11 µM)

Q: What about the MIC [3] of the same molecule?
A: 16 µg/mL (≈ 12.4 µM)

Q: What about the half-life [12] of the same molecule?
A: 3.33 h

Q: What about the MHC [4] of the same molecule?
A: 128 µg/mL

Q: What about the MIC [5] of the same molecule?
A: 4 µg/mL (≈ 3.11 µM)

Q: What about the MIC [6] of the same molecule?
A: 8 µg/mL (≈ 6.22 µM)

Q: What about the MIC [7] of the same molecule?
A: 8 µg/mL (≈ 6.22 µM)

Q: And the MIC [8]?
A: 16 µg/mL (≈ 12.4 µM)

Q: And the MIC [9]?
A: 16 µg/mL (≈ 12.4 µM)

Q: For `CC(C)C[C@H](NC(=O)[C@H](CC(C)C)NC(=O)[C@H](CCCCN)NC(=O)[C@H](CCCCN)NC(=O)[C@H](CC(C)C)NC(=O)[C@H](CC(C)C)NC(=O)[C@H](CCCCN)NC(=O)CN(C[C@@H](N)Cc1ccccc1)S(=O)(=O)c1cc(C(F)(F)F)cc(C(F)(F)F)c1)C(N)=O` (X7-[X4]KLLKKLL-NH2), which MIC [1] is on record?
A: 8 µg/mL (≈ 6.06 µM)

Q: And the MIC [2]?
A: 8 µg/mL (≈ 6.06 µM)

Q: And the MIC [3]?
A: 16 µg/mL (≈ 12.1 µM)

Q: What about the half-life [12] of the same molecule?
A: 5.6 h

Q: And the MHC [4]?
A: 32 µg/mL

Q: And the MIC [5]?
A: 8 µg/mL (≈ 6.06 µM)

Q: And the MIC [6]?
A: 4 µg/mL (≈ 3.03 µM)

Q: What about the MIC [7] of the same molecule?
A: 8 µg/mL (≈ 6.06 µM)

Q: And the MIC [8]?
A: 4 µg/mL (≈ 3.03 µM)

Q: What about the MIC [9] of the same molecule?
A: 8 µg/mL (≈ 6.06 µM)

Q: For `CC(C)C[C@@H](CN(CC(N)=O)S(=O)(=O)c1cc(C(F)(F)F)cc(C(F)(F)F)c1)NC(=O)[C@H](CCCCN)NC(=O)[C@H](CCCCN)NC(=O)[C@H](CC(C)C)NC(=O)[C@H](CC(C)C)NC(=O)[C@H](CCCCN)NC(=O)[C@H](CC(C)C)NC(=O)[C@@H](N)Cc1ccccc1` (H-FLKLLKK-X6), which “fold change (FC)” value [10] is on record?
A: 0.25

Q: What about the MIC [1] of the same molecule?
A: 8 µg/mL (≈ 6.06 µM)

Q: And the MIC [11]?
A: 32 µg/mL

Q: And the MIC [2]?
A: 8 µg/mL (≈ 6.06 µM)

Q: And the MIC [3]?
A: 8 µg/mL (≈ 6.06 µM)

Q: And the half-life [12]?
A: 2.24 h

Q: And the MHC [4]?
A: 128 µg/mL

Q: What about the MIC [5] of the same molecule?
A: 4 µg/mL (≈ 3.03 µM)

Q: What about the MIC [6] of the same molecule?
A: 8 µg/mL (≈ 6.06 µM)

Q: What about the MIC [7] of the same molecule?
A: 8 µg/mL (≈ 6.06 µM)

Q: What about the MIC [8] of the same molecule?
A: 16 µg/mL (≈ 12.1 µM)

Q: What about the MIC [9] of the same molecule?
A: 16 µg/mL (≈ 12.1 µM)

Q: Which results are given for `CC(C)C[C@H](NC(=O)[C@H](C)NC(=O)[C@H](CCCCN)NC(=O)[C@H](CC(C)C)NC(=O)[C@@H](N)Cc1ccccc1)C(=O)N[C@@H](CCCCN)C(=O)N[C@@H](CCCCN)C(=O)N[C@@H](Cc1ccccc1)CN(CC(N)=O)S(=O)(=O)c1cc(C(F)(F)F)cc(C(F)(F)F)c1` (H-FLKALKK-X8)?
A: MIC [1]: 32 µg/mL (≈ 24.4 µM); MIC [2]: 16 µg/mL (≈ 12.2 µM); MIC [3]: 128 µg/mL (≈ 97.5 µM); MHC [4]: 256 µg/mL; MIC [5]: 16 µg/mL (≈ 12.2 µM); MIC [6]: 16 µg/mL (≈ 12.2 µM); MIC [7]: 32 µg/mL (≈ 24.4 µM); MIC [8]: 16 µg/mL (≈ 12.2 µM); MIC [9]: 16 µg/mL (≈ 12.2 µM)

Q: What does the source list for `CC(C)C[C@H](NC(=O)[C@H](CC(C)C)NC(=O)[C@H](CCCCN)NC(=O)[C@H](CC(C)C)NC(=O)[C@@H](N)Cc1ccccc1)C(=O)N[C@@H](CCCCN)C(=O)N[C@@H](CCCCN)C(=O)N[C@@H](Cc1ccccc1)CN(CC(N)=O)S(=O)(=O)c1cc(C(F)(F)F)cc(C(F)(F)F)c1` (H-FLKLLKK-X8)?
A: MIC [1]: 8 µg/mL (≈ 5.91 µM); MIC [2]: 16 µg/mL (≈ 11.8 µM); MIC [3]: 16 µg/mL (≈ 11.8 µM); half-life [12]: 3.31 h; MHC [4]: 64 µg/mL; MIC [5]: 4 µg/mL (≈ 2.95 µM); MIC [6]: 4 µg/mL (≈ 2.95 µM); MIC [7]: 8 µg/mL (≈ 5.91 µM); MIC [8]: 4 µg/mL (≈ 2.95 µM); MIC [9]: 4 µg/mL (≈ 2.95 µM)
